Experimental data taken from paper PMC12007089, “Applying Isothermal Titration Calorimetry and Saturation Transfer Difference-NMR to Study the Mode of Interaction of Flavan-3-ols with α-Amylase to Understand Their Impact on Starch Hydrolysis” (Journal of Agricultural and Food Chemistry, 2025).
Read-outs that look alike come from different tables or passages of the source.

Columns and labels:
[1] = molecular target: T1, porcine pancreatic α-amylase (Sus scrofa, UniProt P00690); experiment: Continuous α-amylase activity assay (starch hydrolysis) by ITC; format: biochemical; details: for IC50: calculated according to the Cheng–Prussoff equation (eq 8) for a 1 M substrate
T1 sequence (P00690 16-511): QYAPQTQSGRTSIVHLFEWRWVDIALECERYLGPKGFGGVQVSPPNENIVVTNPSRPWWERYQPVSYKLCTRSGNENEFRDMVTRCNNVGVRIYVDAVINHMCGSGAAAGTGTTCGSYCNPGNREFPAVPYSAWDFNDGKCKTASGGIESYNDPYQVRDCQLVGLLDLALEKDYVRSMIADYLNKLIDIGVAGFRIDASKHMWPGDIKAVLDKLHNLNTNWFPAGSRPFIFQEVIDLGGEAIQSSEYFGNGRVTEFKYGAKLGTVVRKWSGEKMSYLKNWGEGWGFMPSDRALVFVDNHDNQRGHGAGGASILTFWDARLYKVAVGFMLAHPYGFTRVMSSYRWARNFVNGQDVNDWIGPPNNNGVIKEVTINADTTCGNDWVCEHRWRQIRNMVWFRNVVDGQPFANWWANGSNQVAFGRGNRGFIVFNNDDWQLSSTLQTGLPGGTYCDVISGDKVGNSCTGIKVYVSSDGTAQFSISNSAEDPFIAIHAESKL
Protocol: Without rebuffering, α-amylase was diluted each day with 0.1 M phosphate buffer/0.04 M NaCl to a final dilution of 1:1000 and stored at 4 °C. […] The starch solution was prepared daily, according to the protocol recommended by Brodkorb et al. with some modifications.[37],[38]
The starch suspension in 0.1 M phosphate buffer/0.04 M NaCl was heated for 5 min under vigorous stirring. After cooling to room temperature, the solution was diluted to a final mass concentration of 40.5 g/L (equivalent to 250 mM based on the molecular weight of the glucose monomers). The concentration of starch is typically expressed as a percentage by weight (%, w/v) due to the inherent polydispersity of the molecule, which is influenced by the source of the natural starch, the manufacturing process, and the preparation of the sample.[28],[39] However, the calculation of inhibition constants requires the use of molarities.
Control experiments were performed with 12 nM α-amylase in 0.1 M phosphate buffer/0.04 M NaCl placed in the sample cell at 310 K, and various volumes (1–10 μL) of starch solution were recurrently injected up to three times with an injection interval of 1600 s. It was elucidated that the optimal volume for reaching the maximal turnover velocity (vmax) was 5 μL. Prior to measurement, α-amylase was incubated with the flavan-3-ols for 60 min at 277 K to ensure that adsorption equilibrium has been reached. This was compulsory as the time required for the ITC system to reach equilibrium and to start measurement varied considerably (10–25 min). To confirm α-amylase stability, controls without an inhibitor were performed at the beginning and the end of each day.
The release of heat during the conversion of starch was monitored, and calculations were performed using Microsoft Excel software. The detected thermal power is directly proportional to the enzymatic rate (v0) (eq 1 and 2).[40],[41] [drawing 1] 1 [drawing 2] 2
The heat rate (dQ/dt) is obtained as a function of time (t) and provides information about the conversion rate (ν). The reaction enthalpy (ΔRHapp) is calculated by integrating the heat peak over its entire extent and dividing the result by the number of substrate molecules converted by the enzyme (eq 3). The substrate concentration at time t ([S]t) is calculated according to eq 4. [drawing 3] 3 [drawing 4] 4
The Michaelis–Menten constant (Km) is defined as the substrate concentration at the time (t0.5) when the reaction rate reaches half-maximum (vmax) (eq 5). [drawing 5] 5
Thus, the thermogram provides all information to calculate inhibition constants. While competitive inhibition (Kic, eq 6) is based on the formation of an enzyme–inhibitor complex (EI), the uncompetitive inhibition (Kiu, eq 7) refers to the binding of a ternary enzyme–substrate–inhibitor complex (ESI). [drawing 6] 6 [drawing 7] 7
The maximal conversion rate vmax and the Michaelis–Menten constant Km are calculated from the control experiments in the absence of an inhibitor. In the presence of an inhibitor [I], the apparent values of [drawing 8] and [drawing 9] have been determined.
The inhibitor concentration that is required to reduce the conversion rate to 50% (IC50) depends on the substrate concentration [S] and is calculated according to the Cheng–Prussoff equation (eq 8).[42] [drawing 10] 8

[2] = molecular target: T1, porcine pancreatic α-amylase; experiment: Interaction studies by isothermal titration calorimetry (ITC); format: binding
Protocol: Isothermal titration calorimetry was performed using an Affinity ITC LV with a cell volume of 182 μL (TA Instruments, Eschborn, Germany). Interaction experiments were recorded at 298 K with 0.1 mM rebuffered α-amylase in the sample cell and 4 mM flavan-3-ols in the injection syringe. For each ligand, experiments were performed with 25 injections of 3 μL and a spacing of 200 s between injections. Experiments were carried out in duplicates. Additional measurements were conducted in buffer to ensure that any mixing effects were negligible and that the observed heat development was solely attributed to the interaction studied (S4). In particular, at higher phenolic concentrations, endothermic peaks were observed, arising from the dilution effect.
The data analysis for the interaction studies was conducted using software NanoAnalyze, with manual integration of the peaks. To correct the data for noninteraction-related heats, the mean heat released during the final three injections was subtracted as a constant blank. This procedure is an effective estimation strategy that minimizes errors during the fitting process, provided that the protein is fully saturated.[35] The data were fitted using the “independent” model. To prevent overparametrization, n was set to 1, while Ka and ΔH were maintained as variables, as recommended for low-affinity binding.[35],[36] The stability of the ligand at room temperature was ensured by monitoring the concentrations prior to and following the experiment (S5).

[3] = 100 μM flavan-3-ol, 310 K, initial injection, control 727 ± 103
[4] = 100 µM flavan-3-ol, inj. 2, read-out: Kic
[5] = 100 µM flavan-3-ol, inj. 2, read-out: Kiu
[6] = 100 µM flavan-3-ol, inj. 3, read-out: Kic
[7] = 100 µM flavan-3-ol, inj. 3, read-out: Kiu
[8] = competitive inhibition constant, 100 μM flavan-3-ol, 310 K, initial injection (inj. 1), read-out: Kic
[9] = relative to control, 100 μM flavan-3-ol, 12 nM α-amylase, starch, 310 K, initial injection (inj. 1)
[10] = relative to control, 100 μM flavan-3-ol, 310 K, initial injection
[11] = 0.1 mM α-amylase, 4 mM flavan-3-ol, phosphate buffer, 298 K, n set to 1
[12] = 0.1 mM α-amylase, 4 mM flavan-3-ol, phosphate buffer, 298 K, n set to 1, read-out: Kd
[13] = ITC, values as restated in the discussion
[14] = phosphate buffer, 298 K, n set to 1
[15] = PC C1 concentrations of ∼105 μM, 310 K
[16] = uncompetitive inhibition constant, 100 μM flavan-3-ol, 310 K, initial injection (inj. 1), read-out: Kiu

Row | SMILES | α(Kic/Kiu) ([1]; 100 μM flavan-3-ol, 310 K) | ΔRHapp [1, 3] [kcal/mol] | vmax ([1]; 100 µM flavan-3-ol, inj. 2) [%] | Ki [1, 4] [µM] | Ki [1, 5] [µM] | vmax ([1]; 100 µM flavan-3-ol, inj. 3) [%] | Ki [1, 6] [µM] | Ki [1, 7] [µM] | Ki [1, 8] [µM] | vmax [1, 9] [%] | (dQ/dt)max [1, 10] [%] | Ka [2, 11] | Kd [2, 12] [µM] | Ka [2, 13] [M^–1] | ΔG [2, 14] [kcal/mol] | ΔH [2, 14] [kcal/mol] | ΔS [2, 14] [J/mol·K] | IC50 [1] [µM] | Ki [1, 16] [µM] | other results
1 | Oc1cc(O)c2c(c1)O[C@H](c1ccc(O)c(O)c1)[C@H](O)[C@H]2c1c(O)cc(O)c2c1O[C@H](c1ccc(O)c(O)c1)[C@@H](O)C2 [PC B1, procyanidin B1] | 0.7 ± 0.2 | 0.156 ± 0.0229 | 65±8 | 216 ± 65 | 208 ± 78 | 70±1 | 539 ± 86 | 240 ± 14 | 155 ± 79 | 66 ± 9 | 66 ± 14 | 1.1±0.1 10^3 M^-1 | 900 | 1100 | -4.06 ± 0.024 | -5.26 ± 0.359 | -16±5 |  |  | 
2 | Oc1cc(O)c2c(c1)O[C@H](c1ccc(O)c(O)c1)[C@H](O)[C@H]2c1c(O)cc(O)c2c1O[C@H](c1ccc(O)c(O)c1)[C@H](O)C2 [PC B2, procyanidin B2] | 1.0 ± 0.1 | 0.205 ± 0.00789 | 62±6 | 188 ± 34 | 195 ± 57 | 61±7 | 202 ± 73 | 165 ± 49 |  | 62 ± 4 | 56 ± 4 | 0.9±0.1 10^3 M^-1 | 1100 ± 100 | 900 | -4.06 ± 0.048 | -1.9 ± 0.096 | 31±1 |  |  | 
3 | Oc1cc(O)c2c(c1)O[C@H](c1ccc(O)c(O)c1)[C@H](O)[C@H]2c1c(O)cc(O)c2c1O[C@H](c1ccc(O)c(O)c1)[C@H](O)[C@H]2c1c(O)cc(O)c2c1O[C@H](c1ccc(O)c(O)c1)[C@H](O)C2 [PC C1, procyanidin C1] | 0.9 ± 0.1 | 0.143 ± 0.00789 | 50±5 | 143 ± 56 | 102 ± 19 | 59±2 | 395 ± 78 | 145 ± 14 |  | 50 ± 4 | 44 ± 4 |  |  |  |  |  |  | 103 ± 16 | 103 ± 16 | reduction in α-amylase activity ([1]; 100 μM PC C1): 50%; (dQ/dt)max [1, 15]: 23 ± 0%; ΔRHapp [1, 15]: 0.0406 ± 0.01 kcal/mol; vmax ([1]; PC C1 concentrations of ∼105 μM, 310 K, value printed in brackets): (98 ± 21) %; interaction with α-amylase observed by ITC ([2]; 0.1 mM α-amylase, 4 mM ligand, 298 K): no observable interaction
4 | Oc1cc(O)c2c(c1)O[C@H](c1ccc(O)c(O)c1)[C@H](O)C2 [EC, (−)-Epicatechin] | 0.7 ± 0.1 | 0.195 ± 0.0127 | 77±5 | 305 ± 162 | 389 ± 41 | 76±3 | 291 ± 80 | 330 ± 52 |  | 78 ± 4 | 82 ± 8 |  | 300 |  | -4.78 ± 0.048 | -17.2 ± 1.67 | -173±24 |  |  | Kd ([2]; Ka, 0.1 mM α-amylase, 4 mM flavan-3-ol, phosphate buffer, 298 K, n set to 1): 263 µM
5 | Oc1cc(O)c2c(c1)O[C@H](c1ccc(O)c(O)c1)[C@@H](O)C2 [CAT, (+)-Catechin] | 0.8 ± 0.4 | 0.162 ± 0.0335 | 78±5 | 447 ± 151 | 403 ± 134 | 79±2 | 458 ± 152 | 399 ± 54 | 356 ± 209 | 79 ± 6 | 80 ± 13 | 2.1±0.0 10^3 M^-1 | 500 |  | -4.54 ± 0 | -12.7 ± 1.1 |  | 431 ± 217 | 431 ± 217 | 
